Test systems include BT-549; SW-620; NCI-H460; UACC-257; A549; SF-268; MDA-MB-231; EKVX; KM12; HCC 2998; MDA-MB-435; HCT-116; MDA-N; SK-MEL-5; OVCAR-8; IGROV-1; U-251; SK-MEL-2; A498.
Experiment in all cases: inhibition of tumour cell growth, NCI panel, 48 h

Structures can show the parent of a compound that is named as a salt.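 Compound exposure: 48 hours, 5 concentrations, 96-well plates. At the GI50, growth is halved.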 Activity calls are given as the source filed them. No stated cut-off is given here; in the data, active = GI50 up to about 1.1 µM and inactive = higher. Residues, ends and D or L forms follow the SMILES beside them. *: point of attachment. Tfa = O=C(C(F)(F)F)*

With `O=C(/C=C(\S/C=C(/c1ccccc1)N1CCn2c(C(=O)c3ccccc3)c(C(=O)c3ccccc3)c(C(=O)c3ccccc3)c21)C(=O)c1ccccc1)c1ccccc1`, the GI50 in the assay on BT-549, with SW-620, in the assay on NCI-H460, in the assay on UACC-257, in the assay with A549 and in the assay on SF-268 was > 10 µM (inactive) in each case. The GI50 in the assay with MDA-MB-231, in the assay on EKVX, with KM12, in the assay with HCC 2998, with MDA-MB-435 and with HCT-116 was > 10 µM (inactive) each time. Also, the GI50 in the assay on MDA-N, with SK-MEL-5, in the assay with OVCAR-8, in the assay with IGROV-1, in the assay on U-251 and with SK-MEL-2 was > 10 µM (inactive) each time.

Regarding `NC(Cc1ccc2nc3c4ccccc4c(=O)cc-3oc2c1)C(=O)O` (centres undefined), the GI50 with BT-549 is > 100 µM (inactive); in the assay with SW-620, > 100 µM (inactive); with NCI-H460 it was > 100 µM (inactive); in the assay with UACC-257, 72.1 µM (inactive); in the assay with A549, 44.2 µM (inactive); with SF-268 it was > 100 µM (inactive). The GI50 in the assay on MDA-MB-231 is > 100 µM (inactive); with EKVX, > 100 µM (inactive); in the assay with KM12 it was > 100 µM (inactive); with HCC 2998, > 100 µM (inactive); in the assay on MDA-MB-435 it was 18.2 µM (inactive); in the assay with HCT-116, > 100 µM (inactive). Also, the GI50 in the assay on MDA-N is 16 µM (inactive); with SK-MEL-5 it was 18 µM (inactive); in the assay on IGROV-1, > 100 µM (inactive); in the assay with U-251, > 100 µM (inactive); in the assay with SK-MEL-2, 53.3 µM (inactive).

With `Cc1cccc2c(N)c3cccc(C(=O)NCC[N+](C)(C)[O-])c3nc12`, the GI50 in the assay with BT-549 is 15.2 µM (inactive); with SW-620, 5.53 µM (inactive); in the assay on NCI-H460, 0.538 µM (active); in the assay on UACC-257, 20.6 µM (inactive); with A549, 1.24 µM (inactive); with SF-268, 1.96 µM (inactive). Moreover, the GI50 in the assay with MDA-MB-231 is 20.4 µM (inactive); with EKVX it was 15.6 µM (inactive); in the assay on KM12, > 100 µM (inactive); in the assay on HCC 2998 it was 10.2 µM (inactive); in the assay with MDA-MB-435 it was 16.8 µM (inactive); in the assay on HCT-116, 13.2 µM (inactive). Further, the GI50 is 14.2 µM (inactive) in the assay with MDA-N; 22.8 µM (inactive) in the assay with SK-MEL-5; 8.61 µM (inactive) in the assay on OVCAR-8; 8.39 µM (inactive) in the assay with IGROV-1; 4 µM (inactive) with U-251; 67.5 µM (inactive) in the assay on SK-MEL-2.

`CCOC(=O)CC[C@@H](NC(=O)c1ccc(NCc2ccc3nc(OC)c(OC)nc3c2)cc1)C(=O)OCC`: the GI50 with BT-549 was > 67.3 µM (inactive); with SW-620 it was 80.7 µM (inactive); with NCI-H460, 20.6 µM (inactive); in the assay with UACC-257, 15.7 µM (inactive); in the assay on A549, > 100 µM (inactive); with SF-268, 33.4 µM (inactive). The GI50 was 36.1 µM (inactive) in the assay with MDA-MB-231; > 78.3 µM (inactive) in the assay on EKVX; > 100 µM (inactive) with KM12; 33.6 µM (inactive) in the assay with HCC 2998; 31.4 µM (inactive) in the assay with MDA-MB-435; > 100 µM (inactive) in the assay on HCT-116. Further, the GI50 is 30.1 µM (inactive) in the assay on MDA-N; 13.6 µM (inactive) in the assay on SK-MEL-5; > 100 µM (inactive) in the assay on OVCAR-8; 22.5 µM (inactive) in the assay with IGROV-1; > 100 µM (inactive) with U-251; 18.1 µM (inactive) in the assay with SK-MEL-2.

For the compound `COC(=O)C(=O)C(C(=O)C(=O)Nc1ccccc1C(=O)OC)c1nc2ccc(C(=O)c3ccccc3)cc2nc1O` (centres undefined), the GI50 in the assay with BT-549 was > 100 µM (inactive); in the assay on SW-620 it was 50 µM (inactive); in the assay with NCI-H460, 51.3 µM (inactive); with UACC-257 it was > 100 µM (inactive); in the assay on A549, > 100 µM (inactive); with SF-268 it was 56.9 µM (inactive). For the same compound, the GI50 was 76.4 µM (inactive) with MDA-MB-231; 80.4 µM (inactive) with EKVX; 21.7 µM (inactive) with KM12; 38.9 µM (inactive) in the assay on MDA-MB-435; > 100 µM (inactive) in the assay with HCT-116; 28.4 µM (inactive) with MDA-N. Moreover, the GI50 was 53.7 µM (inactive) in the assay with SK-MEL-5; 81.5 µM (inactive) with A498; 39.4 µM (inactive) with OVCAR-8; 62.8 µM (inactive) in the assay on IGROV-1; > 100 µM (inactive) with U-251; > 100 µM (inactive) with SK-MEL-2.

Turning to `CCCCCCN(C(=O)Oc1ccccc1)C(C#N)c1ccccc1` (centres undefined), the GI50 in the assay on BT-549, with SW-620, in the assay on UACC-257, in the assay on A549, in the assay on SF-268 and in the assay with MDA-MB-231 was > 100 µM (inactive) each time. The GI50 in the assay with EKVX, with KM12, in the assay with HCC 2998, with MDA-MB-435, in the assay on HCT-116 and in the assay on MDA-N was > 100 µM (inactive) each time. The GI50 in the assay with SK-MEL-5, in the assay on A498, in the assay with OVCAR-8, in the assay on IGROV-1, in the assay with U-251 and in the assay with SK-MEL-2 was > 100 µM (inactive) throughout.

Regarding `COc1ccccc1C1CC(=O)CC(c2ccccc2OC)C12C(=O)NC(=S)NC2=O` (centres undefined), the GI50 was > 100 µM (inactive) in the assay with BT-549; 48.5 µM (inactive) with SW-620; 54.5 µM (inactive) in the assay with NCI-H460; 88.3 µM (inactive) with UACC-257; > 100 µM (inactive) in the assay on SF-268; 38.4 µM (inactive) with MDA-MB-231. Also, the GI50 with EKVX was > 100 µM (inactive); with KM12, 62.8 µM (inactive); with HCC 2998 it was 62.7 µM (inactive); with MDA-MB-435, 25.4 µM (inactive); in the assay with HCT-116, 80.5 µM (inactive); in the assay with MDA-N, 18.2 µM (inactive). Moreover, the GI50 in the assay on SK-MEL-5 is 50.2 µM (inactive); with OVCAR-8, > 100 µM (inactive); with IGROV-1, 68.9 µM (inactive); in the assay with U-251, > 100 µM (inactive); with SK-MEL-2 it was 73.8 µM (inactive).

Take `Cc1ccccc1-c1nc2c(N)nc(N)nc2nc1N`: the GI50 in the assay with BT-549 was > 100 µM (inactive); with SW-620 it was 4.86 µM (inactive); in the assay with NCI-H460 it was 3.69 µM (inactive); with UACC-257 it was 86.3 µM (inactive); in the assay with A549, 3.22 µM (inactive); with SF-268 it was 8.38 µM (inactive). In addition, the GI50 in the assay on MDA-MB-231 was 3.3 µM (inactive); in the assay on EKVX it was 38.1 µM (inactive); with KM12 it was 29.8 µM (inactive); with HCC 2998, 25.2 µM (inactive); with MDA-MB-435 it was 5.36 µM (inactive); in the assay on HCT-116, 1.67 µM (inactive). For the same compound, the GI50 with MDA-N was 4.56 µM (inactive); in the assay on SK-MEL-5, > 100 µM (inactive); in the assay on OVCAR-8 it was 14.1 µM (inactive); with IGROV-1, 6.82 µM (inactive); in the assay with U-251 it was 4.33 µM (inactive); with SK-MEL-2 it was > 100 µM (inactive).

For the compound `CC(C)[C@@H]1NC(=O)[C@H]2N=C(O[C@@H]2C)[C@@H]2CCCN2C(=O)[C@H](Cc2ccccc2)NC(=O)[C@@H]2CSC(=N2)[C@@H](Cc2ccccc2)NC(=O)[C@@H]2CSC1=N2`, the GI50 in the assay on BT-549 was > 50 µM (inactive); in the assay on SW-620, > 50 µM (inactive); with UACC-257, > 50 µM (inactive); in the assay with A549, 18.7 µM (inactive); in the assay with SF-268, > 50 µM (inactive); with MDA-MB-231, > 50 µM (inactive). Moreover, the GI50 in the assay with EKVX is > 50 µM (inactive); in the assay on KM12, 25.6 µM (inactive); in the assay on HCC 2998, 21.9 µM (inactive); in the assay with MDA-MB-435, 36.4 µM (inactive); in the assay with HCT-116 it was > 50 µM (inactive); in the assay with MDA-N, > 50 µM (inactive). The GI50 with SK-MEL-5, in the assay with OVCAR-8, in the assay with IGROV-1, in the assay with U-251 and in the assay on SK-MEL-2 was > 50 µM (inactive) each time.

On to `O=CN1CCN(C(=O)c2ccco2)C1=S`, for which the GI50 is 5.5 µM (inactive) in the assay with BT-549; 5.82 µM (inactive) with SW-620; 12.4 µM (inactive) in the assay with NCI-H460; 12.1 µM (inactive) in the assay on UACC-257; 11.3 µM (inactive) with A549; 7.05 µM (inactive) with SF-268. The GI50 is 17.3 µM (inactive) with MDA-MB-231; 17.6 µM (inactive) with EKVX; 6.18 µM (inactive) in the assay with KM12; 5.13 µM (inactive) with MDA-MB-435; 12.2 µM (inactive) with HCT-116; 7.62 µM (inactive) in the assay with MDA-N. Besides, the GI50 is 12.6 µM (inactive) in the assay with SK-MEL-5; 16.5 µM (inactive) in the assay with A498; 16 µM (inactive) in the assay with OVCAR-8; 9.38 µM (inactive) in the assay on IGROV-1; 13.9 µM (inactive) with U-251; 17.2 µM (inactive) with SK-MEL-2.

Regarding `O=C(O)CC(NC(=O)C(F)(F)F)C(=O)NC(Cc1ccc(O)cc1)C(=O)O` (stereo not drawn) (Tfa-Asp-Tyr-OH; configuration not given here), the GI50 with BT-549, in the assay with SW-620, with NCI-H460, in the assay with UACC-257, with A549 and in the assay on SF-268 was > 50 µM (inactive) in each case. The GI50 in the assay on MDA-MB-231, in the assay on EKVX, with KM12, in the assay with HCC 2998, with MDA-MB-435 and in the assay on MDA-N was > 50 µM (inactive) throughout. For the same compound, the GI50 with SK-MEL-5, in the assay on OVCAR-8, in the assay on IGROV-1, in the assay with U-251 and in the assay with SK-MEL-2 was > 50 µM (inactive) in each case.

The record behind these values is ChEMBL document CHEMBL1201862, “PubChem BioAssay data set” (2004).
